Measured values taken from patent US11649242B2, “Pyrrolopyrrole compositions as pyruvate kinase (PKR) activators” (FORMA Therapeutics, Inc., priority 2017, dated 2023).

Experiments:
Assay type in all cases: biochemical
[1] = molecular target: PKR(G332S) (Homo sapiens, UniProt P30613, G332S); assay: Luminescence Assay Protocol (Kinase Glo Plus), PKR(G332S/with FBP); settings: PKRG332S, with FBP; for activation at 1.54 µM: read-out: C - AC50 LUM KGP FBP % Fold @ 1.54 μM mean; for AC50: gmean, read-out: A - AC50 LUM KGP FBP AC50 μM gmean; for Emax: read-out: B - AC50 LUM KGP FBP MAX % FOLD mean
PKR(G332S), sequence (P30613 whole entry G332S): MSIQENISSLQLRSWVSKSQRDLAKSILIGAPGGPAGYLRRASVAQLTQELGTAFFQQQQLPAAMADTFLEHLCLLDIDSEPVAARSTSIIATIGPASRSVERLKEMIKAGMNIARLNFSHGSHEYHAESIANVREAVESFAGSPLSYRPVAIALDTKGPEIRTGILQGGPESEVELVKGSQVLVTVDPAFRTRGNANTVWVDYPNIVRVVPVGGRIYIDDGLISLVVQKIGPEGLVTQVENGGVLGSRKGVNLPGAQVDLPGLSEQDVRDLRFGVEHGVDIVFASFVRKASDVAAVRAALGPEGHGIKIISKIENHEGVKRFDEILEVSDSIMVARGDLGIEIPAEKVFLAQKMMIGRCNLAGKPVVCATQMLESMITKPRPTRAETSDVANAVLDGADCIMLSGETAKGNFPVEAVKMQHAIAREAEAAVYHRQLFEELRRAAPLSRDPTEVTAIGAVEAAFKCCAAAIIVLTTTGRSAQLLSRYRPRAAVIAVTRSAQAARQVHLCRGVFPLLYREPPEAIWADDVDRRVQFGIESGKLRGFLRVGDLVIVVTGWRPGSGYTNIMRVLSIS
Experimental: (§1) Example 47: PKR(Wt/without FBP), PKR(G332S/with FBP), PKR(R510Q/without FBP)
(§2) The phosphorylation of Adenosine-5′-diphosphate (ADP) by various mutants of PKR was determined by the Kinase Glo Plus Assay (Promega) in the presence or absence of FBP [D-Fructose-1,6-diphosphate; BOC Sciences, CAS: 81028-91-3] as follows. Unless otherwise indicated, all reagents were purchased from Sigma-Aldrich. All reagents were prepared in buffer containing 50 mM Tris-HCl, 100 mM KCl, 5 mM MgCl2, and 0.01% Triton X100, 0.03% BSA, and 1 mM DTT. Enzyme and PEP [Phospho(enol) pyruvic acid] were added at 2× to all wells of an assay-ready plate containing serial dilutions of test compounds or DMSO vehicle. Final enzyme concentrations for PKR(wt), PKR(R510Q), and PKR(G332S) were 0.8 nM, 0.8 nM, and 10 nM respectively. Final PEP concentration was 100 μM. The Enzyme/PEP mixture was incubated with compounds for 30 minutes at RT before the assay was initiated with the addition of 2×ADP [Adenosine-5′-diphosphate] and KinaseGloPlus. Final concentration of ADP was 100 μM. […] For assays containing FBP, that reagent is added at 30 μM upon reaction initiation. Reactions were allowed to progress for 45 minutes at RT until luminescence was recorded by the BMG PHERAstar FS Multilabel Reader. All compounds were tested in triplicate at concentrations ranging from 42.5 μM to 2.2 nM in 0.83% DMSO.
(§3) Luminescence values were converted to % Fold increase by normalizing to the average of the DMSO control and multiplying by 100. Max, min, slope and AC50 were determined by the standard four parameter fit algorithm of ActivityBase XE Runner. Compounds were evaluated with three parameters—AC50, MAX % Fold, and % Fold@1.54 μM (FIG. 1). The AC50 value for a compound is the concentration […] corresponding to the midway between the maximum and minimum values of the four parameter logistic curve fit (i.e., at which the % fold increase along the four parameter logistic curve fit is halfway between MAX % Fold and MIN % Fold (% Fold Midpoint)), MAX % Fold is the highest fold increase observed at any concentration of compound, and % Fold@1.54 μM is the fold increase at a compound concentration of 1.54 μM. The parameter % Fold@1.54 μM was selected to capture elements of both the AC50 and MAX % Fold and to provide a ranking based on both potency and effect. The compound concentration of 1.54 μM was chosen as one that can optimally differentiate the set of compounds based on the range of activities observed.
(§4) As set forth in Tables 6 and 7 below, AC50 values (columns A, D, G) are defined as follows: ≤0.1 μM (+++); >0.1 μM and ≤1.0 μM (++); >1.0 μM and ≤40 μM (+); >40 μM (0). Max % FOLD values (columns B, E, H) are defined as follows: ≤75% (+); >75% and ≤250% (++); >250% and ≤500% (+++). % Fold@1.54 μM values (columns C, F, I) are defined as follows: ≤75% (+); >75% and ≤250% (++); >250% and ≤500% (+++).

[2] = molecular target: PKR(R510Q) (Homo sapiens, UniProt P30613, R510Q); assay: Luminescence Assay Protocol (Kinase Glo Plus), PKR(R510Q/without FBP); settings: PKRR510Q, without FBP; for activation at 1.54 µM / F - AC50 LUM KGP woFBP % Fold @ 1.54 μM mean: compound 1.54 μM; for activation at 1.54 µM: read-out: F - AC50 LUM KGP woFBP % Fold @ 1.54 μM mean; for AC50: gmean, read-out: D - AC50 LUM KGP woFBP AC50 μM gmean; for Emax / E - AC50 LUM KGP woFBP MAX % FOLD mean: highest % fold increase at any concentration; for Emax: read-out: E - AC50 LUM KGP woFBP MAX % FOLD mean
PKR(R510Q), sequence (P30613 whole entry R510Q): as the sequence (P30613 whole entry G332S) above, with S332G, R510Q counted along it
Experimental: as §1, §2, §3, §4

[3] = molecular target: PKR(wt) (Homo sapiens, UniProt P30613); assay: Luminescence Assay Protocol (Kinase Glo Plus), PKR(Wt/without FBP); settings: without FBP; for activation at 1.54 µM / I - AC50 LUM KGP woFBP % Fold @ 1.54 μM mean: compound 1.54 μM; for activation at 1.54 µM: read-out: I - AC50 LUM KGP woFBP % Fold @ 1.54 μM mean; for AC50: gmean, read-out: G - AC50 LUM KGP woFBP AC50 μM gmean; for Emax / H - AC50 LUM KGP woFBP MAX % FOLD mean: highest % fold increase at any concentration; for Emax: read-out: H - AC50 LUM KGP woFBP MAX % FOLD mean
PKR(wt), sequence (P30613 whole entry): as the sequence (P30613 whole entry G332S) above, with S332G counted along it
Experimental: as §1, §2, §3, §4

[4] = highest % fold increase at any concentration

## C[C@@H](O)[C@@H](C(=O)N1CC2=C(C1)CN(S(=O)(=O)c1ccc(OC(F)F)cc1)C2)c1ccccc1 (racemic) [Example 26, (2S,3R and 2R,3S)-1-(5-((4-(difluoromethoxy)phenyl)sulfonyl)-3,4,5,6-tetrahydropyrrolo[3,4-c]pyrrol-2(1H)-yl)-3-hydroxy-2-phenylbutan-1-one]
[1]; compound 1.54 μM
  activation at 1.54 µM: 75 to 250%
[1]
  AC50: ≤ 0.1 µM
[1]; [4]
  Emax: 75 to 250%
[2]
  activation at 1.54 µM: 250 to 500%
  AC50: ≤ 0.1 µM
  Emax: 250 to 500%
[3]
  activation at 1.54 µM: 250 to 500%
  AC50: ≤ 0.1 µM
  Emax: 250 to 500%

## C[C@@H](O)[C@H](C(=O)N1CC2=C(C1)CN(S(=O)(=O)c1ccc(OC(F)F)cc1)C2)c1ccccc1 (racemic) [Example 27, (2R,3R and 2S,3S)-1-(5-((4-(difluoromethoxy)phenyl)sulfonyl)-3,4,5,6-tetrahydropyrrolo[3,4-c]pyrrol-2(1H)-yl)-3-hydroxy-2-phenylbutan-1-one]
[1]; compound 1.54 μM
  activation at 1.54 µM: 75 to 250%
[1]
  AC50: ≤ 0.1 µM
[1]; [4]
  Emax: 75 to 250%
[2]
  activation at 1.54 µM: 250 to 500%
  AC50: 0.1 to 1 µM
  Emax: 250 to 500%
[3]
  activation at 1.54 µM: 250 to 500%
  AC50: ≤ 0.1 µM
  Emax: 250 to 500%

## O=C([C@H](CO)c1ccccc1)N1CC2=C(C1)CN(S(=O)(=O)c1cnc3c(c1)OCCO3)C2 (single isomer, unassigned) [Example 1]
[1]; compound 1.54 μM
  activation at 1.54 µM: 75 to 250%
[1]; [4]
  Emax: 75 to 250%
[2]
  activation at 1.54 µM: 250 to 500%
  Emax: 250 to 500%
[3]
  activation at 1.54 µM: 75 to 250%
  Emax: 75 to 250%

## O=C([C@@H](CO)c1ccccc1)N1CC2=C(C1)CN(S(=O)(=O)c1cnc3c(c1)OCCO3)C2 (single isomer, unassigned) [Example 2]
[1]; compound 1.54 μM
  activation at 1.54 µM: 75 to 250%
[1]; [4]
  Emax: 75 to 250%
[2]
  activation at 1.54 µM: 75 to 250%
  Emax: 250 to 500%
[3]
  activation at 1.54 µM: 75 to 250%
  Emax: 75 to 250%

## O=C(C(CO)c1ccccn1)N1CC2=C(C1)CN(S(=O)(=O)c1cnc3c(c1)OCCO3)C2 (single isomer, unassigned) [Example 3, (R or S)-1-(5-((2,3-dihydro-[1,4]dioxino[2,3-b]pyridin-7-yl)sulfonyl)-3,4,5,6-tetrahydropyrrolo[3,4-c]pyrrol-2(1H)-yl)-3-hydroxy-2-(pyridin-2-yl)propan-1-one]
[1]; compound 1.54 μM
  activation at 1.54 µM: 75 to 250%
[1]
  AC50: 1 to 40 µM
[1]; [4]
  Emax: 75 to 250%
[2]
  F - AC50 LUM KGP woFBP % Fold @ 1.54 μM mean: ++ (>75% and ≤250% (++))
  AC50: 0.1 to 1 µM
  E - AC50 LUM KGP woFBP MAX % FOLD mean: +++ (>250% and ≤500% (+++))
[3]
  I - AC50 LUM KGP woFBP % Fold @ 1.54 μM mean: ++ (>75% and ≤250% (++))
  AC50: ≤ 0.1 µM
  H - AC50 LUM KGP woFBP MAX % FOLD mean: ++ (>75% and ≤250% (++))

## O=C(C1CCCOC1)N1CC2=C(C1)CN(S(=O)(=O)c1cnc3c(c1)OCCO3)C2 (single isomer, unassigned) [Example 5, (R or S)-(5-((2,3-dihydro-[1,4]dioxino[2,3-b]pyridin-7-yl)sulfonyl)-3,4,5,6-tetrahydropyrrolo[3,4-c]pyrrol-2(1H)-yl)(tetrahydro-2H-pyran-3-yl)methanone]
[1]; compound 1.54 μM
  activation at 1.54 µM: 75 to 250%
[1]
  AC50: 1 to 40 µM
[1]; [4]
  Emax: 75 to 250%
[2]
  activation at 1.54 µM: 75 to 250%
  AC50: 1 to 40 µM
  Emax: 250 to 500%
[3]
  activation at 1.54 µM: 75 to 250%
  AC50: 0.1 to 1 µM
  Emax: 75 to 250%

## O=C(C1CCCOC1)N1CC2=C(C1)CN(S(=O)(=O)c1cnc3c(c1)OCCO3)C2 (single isomer, unassigned) [Example 6, (S or R)-(5-((2,3-dihydro-[1,4]dioxino[2,3-b]pyridin-7-yl)sulfonyl)-3,4,5,6-tetrahydropyrrolo[3,4-c]pyrrol-2(1H)-yl)(tetrahydro-2H-pyran-3-yl)methanone]
[1]
  AC50: > 40 µM
[2]
  AC50: > 40 µM
[3]
  I - AC50 LUM KGP woFBP % Fold @ 1.54 μM mean: ++ (>75% and ≤250% (++))
  AC50: 1 to 40 µM
  H - AC50 LUM KGP woFBP MAX % FOLD mean: ++ (>75% and ≤250% (++))

## O=C(C1CCCOC1)N1CC2=C(C1)CN(S(=O)(=O)c1ccc3c(c1)NCCO3)C2 (single isomer, unassigned) [Example 33, (S or R)-(5-((3,4-dihydro-2H-benzo[b][1,4]oxazin-6-yl)sulfonyl)-3,4,5,6-tetrahydropyrrolo[3,4-c]pyrrol-2(1H)-yl)(tetrahydro-2H-pyran-3-yl)methanone]
[1]; compound 1.54 μM
  activation at 1.54 µM: 75 to 250%
[1]
  AC50: > 40 µM
[1]; [4]
  Emax: 75 to 250%
[2]
  F - AC50 LUM KGP woFBP % Fold @ 1.54 μM mean: ++ (>75% and ≤250% (++))
  AC50: 1 to 40 µM
  Emax: 250 to 500%
[3]
  activation at 1.54 µM: 75 to 250%
  AC50: 1 to 40 µM
  Emax: 75 to 250%

## O=C(C1CCCOC1)N1CC2=C(C1)CN(S(=O)(=O)c1ccc3c(c1)NCCO3)C2 (single isomer, unassigned) [Example 34, (R or S)-(5-((3,4-dihydro-2H-benzo[b][1,4]oxazin-6-yl)sulfonyl)-3,4,5,6-tetrahydropyrrolo[3,4-c]pyrrol-2(1H)-yl)(tetrahydro-2H-pyran-3-yl)methanone]
[1]; compound 1.54 μM
  C - AC50 LUM KGP FBP % Fold @ 1.54 μM mean: ++ (>75% and ≤250% (++))
[1]
  AC50: 0.1 to 1 µM
[1]; [4]
  B - AC50 LUM KGP FBP MAX % FOLD mean: ++ (>75% and ≤250% (++))
[2]
  F - AC50 LUM KGP woFBP % Fold @ 1.54 μM mean: +++ (>250% and ≤500% (+++))
  AC50: ≤ 0.1 µM
  E - AC50 LUM KGP woFBP MAX % FOLD mean: +++ (>250% and ≤500% (+++))
[3]
  I - AC50 LUM KGP woFBP % Fold @ 1.54 μM mean: ++ (>75% and ≤250% (++))
  AC50: ≤ 0.1 µM
  H - AC50 LUM KGP woFBP MAX % FOLD mean: ++ (>75% and ≤250% (++))

## O=C(C(CO)c1ccccn1)N1CC2=C(C1)CN(S(=O)(=O)c1ccc(OC(F)F)cc1)C2 (single isomer, unassigned) [Example 41, (S or R)-1-(5-((4-(difluoromethoxy)phenyl)sulfonyl)-3,4,5,6-tetrahydropyrrolo[3,4-c]pyrrol-2(1H)-yl)-3-hydroxy-2-(pyridin-2-yl)propan-1-one]
[1]; compound 1.54 μM
  activation at 1.54 µM: 75 to 250%
[1]
  AC50: ≤ 0.1 µM
[1]; [4]
  Emax: 75 to 250%
[2]
  activation at 1.54 µM: 250 to 500%
  AC50: ≤ 0.1 µM
  Emax: 250 to 500%
[3]
  activation at 1.54 µM: 250 to 500%
  AC50: ≤ 0.1 µM
  Emax: 250 to 500%

## COCCC(=O)N1CC2=C(C1)CN(S(=O)(=O)c1ccc3c(c1)OCCO3)C2 [Example 57, 1-(5-((2,3-dihydrobenzo[b][1,4]dioxin-6-yl)sulfonyl)-3,4,5,6-tetrahydropyrrolo[3,4-c]pyrrol-2(1H)-yl)-3-methoxypropan-1-one]
[1]; compound 1.54 μM
  activation at 1.54 µM: 75 to 250%
[1]
  AC50: ≤ 0.1 µM
[1]; [4]
  Emax: 75 to 250%
[2]
  activation at 1.54 µM: 75 to 250%
  AC50: 0.1 to 1 µM
  Emax: 75 to 250%

## COCCC(=O)N1CC2=C(C1)CN(S(=O)(=O)c1ccc3occc3c1)C2 [Example 58, 1-(5-(benzofuran-5-ylsulfonyl)-3,4,5,6-tetrahydropyrrolo[3,4-c]pyrrol-2(1H)-yl)-3-methoxypropan-1-one]
[1]; compound 1.54 μM
  activation at 1.54 µM: 75 to 250%
[1]
  AC50: ≤ 0.1 µM
[1]; [4]
  Emax: 75 to 250%
[2]
  activation at 1.54 µM: 75 to 250%
  AC50: 0.1 to 1 µM
  Emax: 250 to 500%
